The values that follow come from US20240376113A1 (Volastra Therapeutics, Inc., priority 2020, published 2024).

As usually defined, the Ki is the equilibrium dissociation constant of an inhibitor or competing ligand from its target.

Read-outs that look alike come from different tables or passages of the source.

The test has as its target ENPP-1 ECD (Homo sapiens (Human), UniProt P22413). In words: Inhibition of ENPP1 hydrolysis of 2′,3′-cGAMP (Assay 1). As to conditions: AMP-Glo luminescence, KI from IC50 via Cheng/Prusoff.
The mark [1] stands for this setting: read-out: Assay 1 KI values (class), 2,3-cGAMP 24 μM.
[2] abbreviates: read-out: Assay 1 KI, 2,3-cGAMP 24 μM.
[3] abbreviates: Assay 1 KI values (class), 2,3-cGAMP 24 μM.

ENPP-1 ECD, sequence (P22413 98-925): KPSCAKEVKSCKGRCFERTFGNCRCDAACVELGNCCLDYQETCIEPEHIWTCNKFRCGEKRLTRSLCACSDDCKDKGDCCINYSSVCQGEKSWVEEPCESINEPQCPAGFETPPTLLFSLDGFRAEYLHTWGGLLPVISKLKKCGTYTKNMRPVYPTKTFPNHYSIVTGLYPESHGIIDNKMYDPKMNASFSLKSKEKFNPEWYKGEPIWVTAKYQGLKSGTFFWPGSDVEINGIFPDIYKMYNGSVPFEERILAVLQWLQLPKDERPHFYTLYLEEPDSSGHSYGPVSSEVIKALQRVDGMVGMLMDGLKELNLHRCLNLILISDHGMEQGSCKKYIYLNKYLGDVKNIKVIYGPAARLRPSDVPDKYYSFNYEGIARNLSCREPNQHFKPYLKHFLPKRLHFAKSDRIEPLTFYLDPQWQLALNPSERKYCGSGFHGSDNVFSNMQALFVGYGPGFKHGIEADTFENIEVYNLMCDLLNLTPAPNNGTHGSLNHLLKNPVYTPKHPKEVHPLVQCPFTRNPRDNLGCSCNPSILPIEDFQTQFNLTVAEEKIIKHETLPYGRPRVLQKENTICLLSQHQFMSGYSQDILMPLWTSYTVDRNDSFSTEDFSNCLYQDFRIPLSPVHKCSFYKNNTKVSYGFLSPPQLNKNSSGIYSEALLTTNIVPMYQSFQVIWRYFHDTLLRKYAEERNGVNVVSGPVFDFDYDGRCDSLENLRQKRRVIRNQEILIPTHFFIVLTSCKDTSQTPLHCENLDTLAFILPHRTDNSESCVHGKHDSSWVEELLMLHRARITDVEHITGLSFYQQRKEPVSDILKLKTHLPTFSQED
Experimental: Test compounds were plated in a 3× dilution scheme in a 384 well plate.

Consider “3-[(4-{[7-(dimethylamino)-5-methyl-[1,2,4]triazolo[1,5-a]pyrimidin-6-yl]methyl}phenyl)(imino)oxo-λ^6-sulfanyl]propaneitrile [Compound 61]”, for which the Ki reads like this: under setting [1], less than 3 nM; under setting [2], 0.375 nM.

`Cc1nc2ncnn2c(N(C)C)c1Cc1ccc([S@](C)(=N)=O)cc1` (single isomer, unassigned) [Compound 1a]: the inhibition constant (Ki) was 3 to 300 nM under setting [1] and 13.4 nM under setting [2].

On to `Cc1nc2ncnn2c(N2CCCC2)c1Cc1ccc([S@@](C)(=N)=O)cc1` (single isomer, unassigned) [Compound 8b], for which the Ki is, setting by setting: under setting [1], 3 to 300 nM; under setting [2], 13.4 nM.

Take `Cc1cc2ncnn2c(N(C)C)c1Cc1ccc([S@@](C)(=N)=O)cc1` (single isomer, unassigned) [Compound 28b]: the Ki reads like this: under setting [1], 3 to 300 nM; under setting [2], 10 nM.

For the compound `Cc1nc2ncnn2c(N(C)C)c1Cc1ccc([S@](C)(=N)=O)cc1` (single isomer, unassigned) [Compound 49b], the Ki was less than 3 nM under setting [1] and 0.356 nM under setting [2].

As for `Cc1c(Cc2ccc([S@](C)(=N)=O)cc2)c(N(C)C)n2ncnc2c1C#N` (single isomer, unassigned) [Compound 85b], the Ki under setting [2] was found to be 11.1 nM.

As to `Cc1nc2ncnn2c(N(C)C)c1Cc1cccc(NS(N)(=O)=O)c1` [Compound 3, N-(3-{[7-(dimethylamino)-5-methyl-[1,2,4]triazolo[1,5-a]pyrimidin-6-yl]methyl}phenyl)aminosulfonamide], the inhibitory constant (Ki) by setting is: under setting [3], 3 to 300 nM; (Assay 1 KI, 2,3-cGAMP 24 μM) 222 nM.

As for `Cc1nc2ncnn2c(N(C)C)c1Cc1cccc(S(C)(=N)=O)c1` (stereo not shown) [Compound 4, (3-((7-(dimethylamino)-5-methyl-[1,2,4]triazolo[1,5-a]pyrimidin-6-yl)methyl)phenyl)(imino)(methyl)-λ^6-sulfanone], the Ki runs as follows: under setting [3], more than 300 nM; under setting [2], 537 nM.

On to `Cc1nc2ncnn2c(N(C)C)c1CC1CCN(S(N)(=O)=O)CC1` [Compound 15, 4-{[7-(dimethylamino)-5-methyl-[1,2,4]triazolo[1,5-a]pyrimidin-6-yl]methyl}piperidine-1-sulfonamide], for which the Ki is, setting by setting: under setting [3], 3 to 300 nM; under setting [2], 495 nM.

With `Cc1nc2ncnn2c(N2CCCCC2)c1Cc1ccc([S@@](C)(=N)=O)cc1` [Compound 16b], the inhibition constant Ki under setting [1] was 3 to 300 nM and the inhibition constant Ki under setting [2] is 3.17 nM.

Regarding `Cc1nc2ncnn2c(-n2cccn2)c1Cc1ccc(S(C)(=N)=O)cc1` (stereo not shown) [Compound 18, imino(methyl)(4-((5-methyl-7-(1H-pyrazol-1-yl)-[1,2,4]triazolo[1,5-a]pyrimidin-6-yl)methyl)phenyl)-λ^6-sulfanone], the inhibition constant Ki under setting [3] was 3 to 300 nM and the Ki under setting [2] was determined as 6.99 nM.

For the compound `Cc1nc2ncnn2c(C)c1Cc1ccc(S(C)(=N)=O)cc1` (stereo not shown) [Compound 26, [4-({5,7-dimethyl-[1,2,4]triazolo[1,5-a]pyrimidin-6-yl}methyl)phenyl](imino)methyl-λ6-sulfanone], the Ki was 3 to 300 nM under setting [3] and 13.6 nM under setting [2].

Regarding `Cc1nc2nccn2c(N(C)C)c1Cc1ccc([S@@](C)(=N)=O)cc1` [Compound 29b], the Ki runs as follows: under setting [1], 3 to 300 nM; under setting [2], 42.2 nM.

As for `CCN(CC)c1c(Cc2ccc(S(C)(=N)=O)cc2)c(C)nc2ncnn12` (stereo not shown) [Compound 38], the Ki reads like this: under setting [3], 3 to 300 nM; under setting [2], 37.9 nM.

As to `Cc1nc2ncnn2c(N(C)C2CC2)c1Cc1ccc(S(C)(=N)=O)cc1` (stereo not shown) [Compound 39, [4-({7-[cyclopropyl(methyl)amino]-5-methyl-[1,2,4]triazolo[1,5-a]pyrimidin-6-yl}methyl)phenyl](imino)methyl-λ^6-sulfanone], the Ki under setting [3] is 3 to 300 nM.

For `Cc1nc2ncnn2c(N(C)C2CCC2)c1Cc1ccc(S(C)(=N)=O)cc1` (stereo not shown) [Compound 40], the inhibition constant Ki is, setting by setting: under setting [3], 3 to 300 nM; under setting [2], 27 nM.

As to `Cc1nc2ncnn2c(N2CC(F)(F)C2)c1Cc1ccc(S(C)(=N)=O)cc1` (stereo not shown) [Compound 41], the Ki under setting [3] fell in the range of 3 to 300 nM and the Ki under setting [2] is 10.8 nM.

`Cc1nc2ncnn2c(N2CC(C)(C)C2)c1Cc1ccc(S(C)(=N)=O)cc1` (stereo not shown) [Compound 42, (4-{[7-(3,3-dimethylazetidin-1-yl)-5-methyl-[1,2,4]triazolo[1,5-a]pyrimidin-6-yl]methyl}phenyl)(imino)methyl-λ^6-sulfanone] showed a Ki under setting [3] of 3 to 300 nM.

Under setting [3], `Cc1nc2ncnn2c(N2CCC(F)(F)CC2)c1Cc1ccc(S(C)(=N)=O)cc1` (stereo not shown) [Compound 43, (4-{[7-(4,4-difluoropiperidin-1-yl)-5-methyl-[1,2,4]triazolo[1,5-a]pyrimidin-6-yl]methyl}phenyl)(imino)methyl-λ^6-sulfanone] returned an inhibition constant Ki of 3 to 300 nM.

With `Cc1nc2ncnn2c(N2C3CCC2CC3)c1Cc1ccc(S(C)(=N)=O)cc1` (stereo not shown) [Compound 44, {4-[(7-{7-azabicyclo[2.2.1]heptan-7-yl}-5-methyl-[1,2,4]triazolo[1,5-a]pyrimidin-6-yl)methyl]phenyl}(imino)methyl-λ^6-sulfanone], under setting [3], the Ki lay in the range of 3 to 300 nM.

With `Cc1nc2ncnn2c(N2CC3CC2C3)c1Cc1ccc(S(C)(=N)=O)cc1` (stereo not shown) [Compound 45, {4-[(7-{2-azabicyclo[2.1.1]heptan-2-yl}-5-methyl-[1,2,4]triazolo[1,5-a]pyrimidin-6-yl)methyl]phenyl}(imino)methyl-λ^6-sulfanone], the Ki is, setting by setting: under setting [3], 3 to 300 nM; under setting [2], 9.83 nM.

Take `Cc1nc2ncnn2c(N2CC3CC(C3)C2)c1Cc1ccc(S(C)(=N)=O)cc1` (stereo not shown) [Compound 46, {4-[(7-{3-azabicyclo[3.1.1]heptan-3-yl}-5-methyl-[1,2,4]triazolo[1,5-a]pyrimidin-6-yl)methyl]phenyl}(imino)methyl-λ^6-sulfanone]: under setting [3], the Ki lay within 3 to 300 nM.

As for `Cc1nc2ncnn2c(N2C3CCCC2CC3)c1Cc1ccc(S(C)(=N)=O)cc1` (stereo not shown) [Compound 47], the inhibition constant (Ki) under setting [3] was in the range of 3 to 300 nM and the inhibition constant (Ki) under setting [2] came out at 50.9 nM.

`Cc1nc2ncnn2c(N2CC3CC3C2)c1Cc1ccc(S(C)(=N)=O)cc1` (stereo not shown) [Compound 48, {4-[(7-{3-azabicyclo[3.1.0]heptan-3-yl}-5-methyl-[1,2,4]triazolo[1,5-a]pyrimidin-6-yl)methyl]phenyl}(imino)methyl-λ^6-sulfanone]: the Ki under setting [3] is less than 3 nM and the inhibition constant Ki under setting [2] is 2.65 nM.

For the compound `CN(C)c1c(Cc2ccc(S(C)(=N)=O)cc2)c(C(F)(F)F)nc2ncnn12` (stereo not shown) [Compound 51], the Ki is 3 to 300 nM under setting [3] and 5.56 nM under setting [2].

For `CS(=N)(=O)c1ccc(Cc2c(C(F)(F)F)nc3ncnn3c2N2CCCCC2)cc1` (stereo not shown) [Compound 52], the Ki is 3 to 300 nM under setting [3] and 4.85 nM under setting [2].

For the compound `Cc1nc2ncnn2c(N(C)C)c1Cc1ccc(S(=N)(=O)C2COC2)cc1` (stereo not shown) [Compound 62, [(4-{[7-(dimethylamino)-5-methyl-[1,2,4]triazolo[1,5-a]pyrimidin-6-yl]methyl}phenyl)(oxetan-3-yl)imino-λ^6-sulfanyl]one], the inhibition constant (Ki) reads like this: under setting [3], less than 3 nM; under setting [2], 0.19 nM.

`Cc1nc2ncnn2c(N(C)C)c1Cc1ccc(S(=N)(=O)C2CC2)cc1` (stereo not shown) [Compound 63, [cyclopropyl(4-{[7-(dimethylamino)-5-methyl-[1,2,4]triazolo[1,5-a]pyrimidin-6-yl]methyl}phenyl)imino-λ^6-sulfanyl]one]: the Ki is less than 3 nM under setting [3] and 0.0363 nM under setting [2].

For the compound `Cc1nc2ncnn2c(N(C)C)c1Cc1cccc(S(N)(=O)=O)c1` [Compound 65, 3-{[7-(dimethylamino)-5-methyl-[1,2,4]triazolo[1,5-a]pyrimidin-6-yl]methyl}benzene-1-sulfonamide], the Ki under setting [3] lay in the range of 3 to 300 nM and the Ki under setting [2] stood at 181 nM.

Turning to `CS(=N)(=O)Cc1ccc(-c2cnc3ncnn3c2)cc1` (stereo not shown) [Compound 66, imino(methyl)[(4-{[1,2,4]triazolo[1,5-a]pyrimidin-6-yl}phenyl)methyl]-λ^6-sulfanone], the Ki reads like this: under setting [3], more than 300 nM; under setting [2], more than 1500 nM.

As for `Cc1nc2ncnn2c(N(C)C)c1-c1ccc(CCS(C)(=N)=O)cc1` (stereo not shown) [Compound 68, (2-{4-[7-(dimethylamino)-5-methyl-[1,2,4]triazolo[1,5-a]pyrimidin-6-yl]phenyl}ethyl)(imino)methyl-λ^6-sulfanone], the Ki under setting [3] fell in the range of 3 to 300 nM.

Regarding `Cc1nc2ncnn2c(N(C)C)c1-c1ccc2c(c1)CN(S(N)(=O)=O)CC2` [Compound 69, 7-[7-(dimethylamino)-5-methyl-[1,2,4]triazolo[1,5-a]pyrimidin-6-yl]-1,2,3,4-tetrahydroisoquinoline-2-sulfonamide], the Ki is 3 to 300 nM under setting [3] and 122 nM under setting [2].

Take `Cc1nc2ncnn2cc1Cc1ccc(S(C)(=N)=O)cc1` (stereo not shown) [Compound 70, imino(methyl)[4-({5-methyl-[1,2,4]triazolo[1,5-a]pyrimidin-6-yl}methyl)phenyl]-λ6-sulfanone]: the Ki under setting [3] is 3 to 300 nM and the Ki under setting [2] came out at 179 nM.

The compound `Cc1nc2ncnn2c(C2CC2)c1Cc1ccc(S(C)(=N)=O)cc1` (stereo not shown) [Compound 71, [4-({7-cyclopropyl-5-methyl-[1,2,4]triazolo[1,5-a]pyrimidin-6-yl}methyl)phenyl](imino)methyl-λ6-sulfanone] gave an inhibition constant Ki under setting [3] of 3 to 300 nM.

`Cc1nc2ncnn2c(N(C)C)c1Cc1ccc([S@](=N)(=O)CCC(=O)O)cc1` [Compound 72b]: the Ki under setting [2] was 0.982 nM.

As for `CN(C)c1c(Cc2ccc([S@](C)(=N)=O)cc2)c(Cl)nc2ncnn12` [Compound 74b], the inhibition constant Ki reads like this: under setting [1], 3 to 300 nM; under setting [2], 9.97 nM.

With `Cc1c(Cc2ccc([S@](C)(=N)=O)cc2)c(N(C)C)n2ccnc2c1C#N` [Compound 80b], the inhibitory constant (Ki) is 3 to 300 nM under setting [1] and 43 nM under setting [2].

Take `Cc1nc2nccn2c(N2CCCCC2)c1Cc1ccc(S(C)(=N)=O)cc1` (stereo not shown) [Compound 83, Imino(methyl)(4-{[7-methyl-5-(piperidin-1-yl)imidazo[1,2-a]pyrimidin-6-yl]methyl}phenyl)-λ^6-sulfanone]: the Ki is, setting by setting: under setting [3], less than 3 nM; under setting [2], 0.0978 nM.
